From PMC9241915, “Functional Analysis of Feedback Inhibition-Insensitive Variants of N-Acetyl Glutamate Kinase Found in Sake Yeast Mutants with Ornithine Overproduction” (Microbiology Spectrum, 2022)

Columns and labels:
Experiment in all cases: PK/LDH-coupled NADH oxidation at […] nm
Format in all cases: biochemical
[1] = molecular target: T1, NAGK (N-acetyl glutamate kinase, Arg6) (Saccharomyces cerevisiae, UniProt Q01217, T340A)
T1 construct: gene ARG5

[2] = molecular target: T2, NAGK (N-acetyl glutamate kinase, Arg6) (Saccharomyces cerevisiae, UniProt Q01217, T340N)
T2 construct: gene ARG5
T2 sequence (Q01217 58-513 T340N): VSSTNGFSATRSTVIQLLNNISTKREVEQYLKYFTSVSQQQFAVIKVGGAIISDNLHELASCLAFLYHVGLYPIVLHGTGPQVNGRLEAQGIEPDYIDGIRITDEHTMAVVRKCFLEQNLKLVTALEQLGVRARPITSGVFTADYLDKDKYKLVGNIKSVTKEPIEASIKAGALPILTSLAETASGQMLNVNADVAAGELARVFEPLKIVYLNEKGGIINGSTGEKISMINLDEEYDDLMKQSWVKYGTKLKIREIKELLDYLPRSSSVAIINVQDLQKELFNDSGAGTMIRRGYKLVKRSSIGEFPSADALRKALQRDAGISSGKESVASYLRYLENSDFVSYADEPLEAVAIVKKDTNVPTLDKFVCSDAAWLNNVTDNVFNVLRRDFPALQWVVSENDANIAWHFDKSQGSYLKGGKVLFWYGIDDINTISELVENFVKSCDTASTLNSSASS

[3] = molecular target: T3, NAGK (N-acetyl glutamate kinase, Arg6) (Saccharomyces cerevisiae, UniProt Q01217, T340R)
T3 construct: gene ARG5
T3 sequence (Q01217 58-513 T340R): as the sequence (Q01217 58-513 T340N) above, with N283R counted along it

[4] = molecular target: T4, NAGK (N-acetyl glutamate kinase, Arg6) (Saccharomyces cerevisiae, UniProt Q01217, V267A)
T4 construct: gene ARG5
T4 sequence (Q01217 58-513 V267A): as the sequence (Q01217 58-513 T340N) above, with V210A, N283T counted along it

[5] = molecular target: T5, NAGK (N-acetyl glutamate kinase, Arg6) (Saccharomyces cerevisiae, UniProt Q01217, C119Y)
T5 construct: gene ARG5
T5 sequence (Q01217 58-513 C119Y): as the sequence (Q01217 58-513 T340N) above, with C62Y, N283T counted along it

[6] = molecular target: T6, NAGK (N-acetyl glutamate kinase, Arg6) (Saccharomyces cerevisiae, UniProt Q01217, T340E)
T6 construct: gene ARG5
T6 sequence (Q01217 58-513 T340E): as the sequence (Q01217 58-513 T340N) above, with N283E counted along it

[7] = molecular target: T7, NAGK (N-acetyl glutamate kinase, Arg6) (Saccharomyces cerevisiae, UniProt Q01217, T340S)
T7 construct: gene ARG5
T7 sequence (Q01217 58-513 T340S): as the sequence (Q01217 58-513 T340N) above, with N283S counted along it

[8] = molecular target: T8, NAGK (N-acetyl glutamate kinase, Arg6) (Saccharomyces cerevisiae, UniProt Q01217)
T8 construct: gene ARG5
T8 sequence (Q01217 58-513): as the sequence (Q01217 58-513 T340N) above, with N283T counted along it

[9] = molecular target: T9, NAGK (N-acetyl glutamate kinase, Arg6) (Saccharomyces cerevisiae, UniProt Q01217, T340L)
T9 construct: gene ARG5
T9 sequence (Q01217 58-513 T340L): as the sequence (Q01217 58-513 T340N) above, with N283L counted along it

T1 sequence (Q01217 58-513 T340A): as the sequence (Q01217 58-513 T340N) above, with N283A counted along it

Compound `N=C(N)NCCC[C@H](N)C(=O)O` [arginine] has an IC50 [1] of 2250 ± 200 µM, an IC50 [2] of 24000 ± 5360 µM and an IC50 [3] of 2480 ± 670 µM. The IC50 [4] was 2830 ± 160 µM, the IC50 [5] was 780 ± 50 µM and the IC50 [6] was 6870 ± 1000 µM. It also gave an IC50 [7] of 170 ± 120 µM, an IC50 [8] of 90 µM and an IC50 [9] of 10500 ± 800 µM.
